{"source": "patent US20260116867A1", "about": "“PROTEOLYSIS TARGETING CHIMERAS FOR HUMAN PREGNANE X RECEPTOR AND FOR DEGRADATION OF GSPT1” (ST. JUDE CHILDREN'S RESEARCH HOSPITAL, priority 2022, published 2026)", "assay_type_in_all_cases": "cell-based", "key": {"[1]": {"target": "T1, HiBiT-FKBP12^F36V-PXR (Homo sapiens, UniProt O75469+P62942, F37V)", "T1 construct": "expressed in transfected cells; host or cells: HepG2 cells (transient, Lipofectamine 3000)", "T1 sequence (P62942+O75469 fused P62942:F37V)": "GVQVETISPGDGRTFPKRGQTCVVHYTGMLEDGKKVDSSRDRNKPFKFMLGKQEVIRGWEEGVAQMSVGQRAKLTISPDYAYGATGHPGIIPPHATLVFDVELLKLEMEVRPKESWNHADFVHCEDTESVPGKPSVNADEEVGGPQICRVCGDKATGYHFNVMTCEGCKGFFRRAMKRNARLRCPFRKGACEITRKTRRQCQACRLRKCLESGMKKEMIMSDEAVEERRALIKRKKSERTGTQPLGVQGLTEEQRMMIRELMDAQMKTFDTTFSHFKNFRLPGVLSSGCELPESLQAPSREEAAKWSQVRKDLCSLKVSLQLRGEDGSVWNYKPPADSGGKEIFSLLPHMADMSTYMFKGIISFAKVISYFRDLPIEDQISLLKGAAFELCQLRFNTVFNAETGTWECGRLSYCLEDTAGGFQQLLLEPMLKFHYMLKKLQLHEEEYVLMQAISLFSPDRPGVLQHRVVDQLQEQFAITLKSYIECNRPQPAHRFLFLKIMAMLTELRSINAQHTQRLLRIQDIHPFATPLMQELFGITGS", "T1 sequence (Q96SW2 whole entry partner)": "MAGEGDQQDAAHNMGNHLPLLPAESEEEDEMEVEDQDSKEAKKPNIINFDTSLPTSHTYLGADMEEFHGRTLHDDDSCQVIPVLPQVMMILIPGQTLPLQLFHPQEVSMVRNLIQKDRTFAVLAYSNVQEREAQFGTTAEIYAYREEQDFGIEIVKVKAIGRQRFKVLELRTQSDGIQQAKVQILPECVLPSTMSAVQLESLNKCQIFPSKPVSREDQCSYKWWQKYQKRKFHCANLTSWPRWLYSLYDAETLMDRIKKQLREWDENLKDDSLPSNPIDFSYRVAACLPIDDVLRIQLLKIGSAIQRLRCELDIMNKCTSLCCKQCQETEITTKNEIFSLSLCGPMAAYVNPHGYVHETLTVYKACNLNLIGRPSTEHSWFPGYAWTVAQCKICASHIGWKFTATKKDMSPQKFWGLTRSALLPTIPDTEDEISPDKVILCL", "assay": "HiBiT assay for degradation of overexpressed protein in HepG2 cells", "conditions": "HepG2, HiBiT-FKBP12^F36V-PXR, 24 h, FIG. 4A", "protocol": "HepG2 cells (5×10^6 cells/dish) were plated in tissue culture-treated 10 cm dishes in 10 mL EMEM with 10% FBS. The next day, cells were transfected with 5 μg pcDNA3-HiBiT-FKBP^F36V-2xHA-PXR and either 5 μg pcDNA3 vector or 5 μg pcDNA3-HA-CRBN using Lipofectamine 3000 (Thermo Fisher Scientific). After 24 h, cells were trypsinized, resuspended in assay media, and plated in white tissue culture-treated 384-well plates (1.5×10^4 cells/well in 25 μL medium). […] The plates were incubated for 24 h, and the Nano-Glo HiBiT Lytic Detection System (Promega) and an EnVision microplate reader were used to measure HiBiT signal. Results are reported as fold change relative to DMSO control cells.\nTo establish a method for discovery of PXR degraders in the absence of a known PXR-degrading control, the degradation tag (dTAG) system was used. With this method, a protein of interest (PXR) is fused to a cytosolic prolyl isomerase, FKBP12, with Phe36 mutated to Val (FKBP12^F36V) (FIG. 2A). A PROTAC molecule, dTAG-13 (FIG. 2B), is then used to induce degradation of the fusion protein through recruitment of the CUL4-RBX1-DDB1-CRBN (CRL4^CRBN) E3 ubiquitin ligase, without affecting the cellular FKBP12 protein. An HA tag was added for western blot detection, and a HiBiT tag was fused to the N-terminus to allow high-throughput plate-based quantification of HiBiT-FKBP12^F36V-PXR protein levels (FIG. 2A). […] This was also observed when the HA tag was detected by western blot (FIG. 2D). The HiBiT detection was more sensitive to protein level changes than western blot, and, importantly, overexpression of CRBN was required to achieve dTAG-13-mediated degradation of the overexpressed HiBiT-FKBP12^F36V-PXR protein."}, "[2]": {"target": "T2, GSPT1 (Homo sapiens, UniProt P15170+Q96SW2)", "T2 construct": "endogenous in cells", "T2 sequence (P15170 1-637 isoform P15170-3)": "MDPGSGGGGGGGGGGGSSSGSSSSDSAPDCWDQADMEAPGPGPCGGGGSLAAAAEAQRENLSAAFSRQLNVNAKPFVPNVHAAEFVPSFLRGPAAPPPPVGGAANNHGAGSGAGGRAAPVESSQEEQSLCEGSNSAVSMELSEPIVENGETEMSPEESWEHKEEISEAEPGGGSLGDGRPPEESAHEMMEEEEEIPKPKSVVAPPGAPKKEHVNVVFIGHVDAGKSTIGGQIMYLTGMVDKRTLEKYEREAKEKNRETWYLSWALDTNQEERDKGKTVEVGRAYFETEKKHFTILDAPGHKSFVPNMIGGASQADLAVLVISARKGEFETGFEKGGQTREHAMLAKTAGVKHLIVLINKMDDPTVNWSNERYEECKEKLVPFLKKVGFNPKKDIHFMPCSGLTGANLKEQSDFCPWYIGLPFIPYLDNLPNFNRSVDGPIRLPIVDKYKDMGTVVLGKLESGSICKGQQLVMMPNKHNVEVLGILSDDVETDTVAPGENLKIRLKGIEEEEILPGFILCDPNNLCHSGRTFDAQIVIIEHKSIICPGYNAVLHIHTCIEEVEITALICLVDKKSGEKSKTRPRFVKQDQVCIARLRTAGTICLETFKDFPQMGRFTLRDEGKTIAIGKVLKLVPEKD", "T2 sequence (Q96SW2 whole entry)": "as the sequence (Q96SW2 whole entry partner) above", "T2 sequence (Q16531 whole entry partner)": "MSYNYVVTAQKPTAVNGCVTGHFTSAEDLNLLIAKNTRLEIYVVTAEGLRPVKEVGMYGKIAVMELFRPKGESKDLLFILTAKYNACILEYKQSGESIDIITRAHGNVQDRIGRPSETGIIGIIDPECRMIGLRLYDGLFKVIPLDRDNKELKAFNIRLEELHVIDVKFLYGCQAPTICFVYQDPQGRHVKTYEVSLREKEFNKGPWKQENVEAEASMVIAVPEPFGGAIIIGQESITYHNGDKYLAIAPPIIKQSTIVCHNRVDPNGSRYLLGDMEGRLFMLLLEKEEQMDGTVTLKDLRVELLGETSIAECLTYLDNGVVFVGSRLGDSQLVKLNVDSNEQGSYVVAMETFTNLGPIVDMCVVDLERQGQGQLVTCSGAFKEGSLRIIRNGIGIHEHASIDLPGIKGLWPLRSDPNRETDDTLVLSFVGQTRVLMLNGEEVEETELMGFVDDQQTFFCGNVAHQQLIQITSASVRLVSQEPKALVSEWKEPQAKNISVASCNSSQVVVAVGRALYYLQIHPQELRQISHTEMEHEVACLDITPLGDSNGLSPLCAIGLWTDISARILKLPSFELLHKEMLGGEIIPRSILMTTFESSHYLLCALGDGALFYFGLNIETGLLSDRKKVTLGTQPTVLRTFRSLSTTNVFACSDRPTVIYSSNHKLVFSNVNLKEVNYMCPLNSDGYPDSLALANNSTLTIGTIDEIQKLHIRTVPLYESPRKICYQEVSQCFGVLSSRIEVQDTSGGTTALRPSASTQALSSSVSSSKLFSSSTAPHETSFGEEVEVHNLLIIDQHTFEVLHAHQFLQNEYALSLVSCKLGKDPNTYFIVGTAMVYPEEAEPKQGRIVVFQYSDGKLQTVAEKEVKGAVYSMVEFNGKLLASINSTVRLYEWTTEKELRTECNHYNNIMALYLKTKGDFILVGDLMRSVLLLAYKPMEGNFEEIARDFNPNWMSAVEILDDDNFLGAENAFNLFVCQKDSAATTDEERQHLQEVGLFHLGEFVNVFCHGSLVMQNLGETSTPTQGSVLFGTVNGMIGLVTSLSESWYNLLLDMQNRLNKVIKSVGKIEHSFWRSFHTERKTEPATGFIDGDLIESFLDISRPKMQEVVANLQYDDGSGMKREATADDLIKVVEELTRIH", "assay": "Western blot of GSPT1 protein in SNU—C4 3xFLAG-PXR KI cells", "protocol": "(§1) The following day, DMSO or compounds were added to result in 0.5% DMSO and the indicated compound concentrations, and cells were incubated for the indicated time points. Cells were lysed and subjected to western blotting as above using antibodies against FLAG (Sigma-Aldrich, cat. #F3165, 1:2,000 dilution), GSPT1 (Abcam, cat. #ab126090, 1:4,000 dilution), and R-Actin (Cell Signaling Technology, cat. #4967, 1:2,000 dilution)."}, "[3]": {"target": "T3, PXR (Homo sapiens, UniProt O75469)", "T3 sequence (O75469 1-434)": "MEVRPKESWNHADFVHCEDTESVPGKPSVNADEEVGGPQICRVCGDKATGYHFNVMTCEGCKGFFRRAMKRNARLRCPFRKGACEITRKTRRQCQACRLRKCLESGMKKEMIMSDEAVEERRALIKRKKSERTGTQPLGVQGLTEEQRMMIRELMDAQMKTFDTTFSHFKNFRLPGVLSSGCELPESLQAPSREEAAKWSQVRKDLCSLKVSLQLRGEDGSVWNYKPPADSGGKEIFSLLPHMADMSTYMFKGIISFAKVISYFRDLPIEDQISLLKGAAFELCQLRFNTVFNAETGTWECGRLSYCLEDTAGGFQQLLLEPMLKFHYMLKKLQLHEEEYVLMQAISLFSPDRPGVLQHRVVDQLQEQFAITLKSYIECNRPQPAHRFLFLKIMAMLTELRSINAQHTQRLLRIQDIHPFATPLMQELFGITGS", "assay": "Western blot of endogenous 3xFLAG-PXR protein in SNU—C4 3xFLAG-PXR KI cells", "design": "To assess SJPYT-195 activity against endogenous PXR, CRISPR-Cas9 was used; endogenous in cells", "protocol": "as §1"}}, "note": "“Also recorded” adds a separate entry of the source."}
{"compound": "COc1ccc(OC)c(-n2nnc(C(=O)Nc3cc(Oc4cccc5c4C(=O)N(C4CCC(=O)NC4=O)C5=O)cc(C(C)(C)C)c3)c2C)c1", "note": "(stereo not drawn) [Compound M4, N-(3-(tert-butyl)-5-((2-(2,6-dioxopiperidin-3-yl)-1,3-dioxoisoindolin-4-yl)oxy)phenyl)-1-(2,5-dimethoxyphenyl)-5-methyl-1H-1,2,3-triazole-4-carboxamide]", "values": [{"measurement": "HiBiT signal (screen of PXR ligand-CRBN ligand compounds)", "setting": "[1]", "result": "reduced HiBiT signal"}, {"measurement": "GSPT1 Loss at 10 μM (% ± SD)", "setting": "[2]; 10 μM compound, calculated from western blots FIG. 9A", "result": "100 ± 0.1", "unit": "%"}, {"measurement": "activity on GSPT1, fold lower than that of CC-885", "setting": "[2]; western blot, FIG. 6D-E", "result": "~100", "unit": "fold"}, {"measurement": "GSPT1 degradation (in words)", "setting": "[2]; western blot, SNU—C4 3xFLAG-PXR KI cells, listed as SJPYT-195", "result": "deplete GSPT1 at concentrations much lower than those required to reduce PXR; also recorded: most potent inducer of GSPT1 degradation"}, {"measurement": "reduction of PXR protein", "setting": "[3]; 5 μM, 12 h", "result": "~50", "unit": "%"}, {"measurement": "maximum degradation efficacy (DNax) of endogenous PXR protein", "setting": "[3]; SNU—C4 3xFLAG-PXR KI cells, FIG. 4B", "result": "85% ±1"}, {"measurement": "DC50", "setting": "[3]; SNU—C4 3xFLAG-PXR KI cells, FIG. 4B, read-out: half maximal degradation concentration (DC50) of endogenous PXR protein", "result": "310 ± 130", "unit": "nM"}, {"measurement": "kinetics of PXR protein decrease", "setting": "[3]; time-course, FIG. 5A-B", "result": "quite slow"}, {"measurement": "PXR protein level (in words)", "setting": "[3]; western blot, SNU—C4 3xFLAG-PXR KI cells", "result": "reduced PXR to a greater extent than CC-885"}]}
